Source: patent US9957265B2, “N-(2-cyano heterocyclyl) pyrazolo pyridones as janus kinase inhibitors” (Merck Sharp & Dohme Corp., priority 2013, dated 2018)
Where two headings read alike, the source gives them in different places.

How the values were obtained:
JAK1 = JAK1 (Homo sapiens (Human), UniProt P23458); experiment: Jak Biochemical HTRF Assay (JAK1); settings: recombinant GST-tagged catalytic domain, [ATP] 31.8 μM, unit not given (compound concentrations tested given in nM)
Description: Jak Biochemical HTRF Assay Protocol
Subsequent reagent additions employed an Agilent Bravo.

JAK2 = JAK2 (Homo sapiens (Human), UniProt O60674); experiment: Jak Biochemical HTRF Assay (JAK2)
Sequence of JAK2 (O60674 849-1124): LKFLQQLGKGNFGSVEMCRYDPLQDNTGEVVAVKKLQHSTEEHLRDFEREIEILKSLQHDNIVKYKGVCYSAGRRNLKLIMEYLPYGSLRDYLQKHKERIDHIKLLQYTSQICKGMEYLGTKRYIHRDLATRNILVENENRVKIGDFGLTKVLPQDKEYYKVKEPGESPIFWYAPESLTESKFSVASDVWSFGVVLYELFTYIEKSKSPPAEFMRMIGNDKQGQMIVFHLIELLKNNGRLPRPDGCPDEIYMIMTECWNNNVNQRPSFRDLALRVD
Description: The ability of compounds to inhibit the activity of JAK1, JAK2, JAK3, and TYK2 was measured using a recombinant purified GST-tagged catalytic domain for each enzyme (Invitrogen JAK1 #M4290, JAK2 #M4290, JAK3 #M4290, TYK2 #M4290) in an HTRF format biochemical assay. […] Subsequent reagent additions employed an Agilent Bravo. […] After equilibration, 2 μL of 10×ATP in 1× assay buffer was added to initiate the kinase reaction and the plates were shaken and then incubated at room temperature for 120 minutes. […] After normalization to untreated controls, the percent inhibition of the HTRF signal at each compound concentration was calculated. The plot of percent inhibition versus the log of compound concentration was fit with a 4-parameter dose response equation to calculate IC50 values.
Final reaction conditions were:

[1] = JAK2 IC50, recombinant GST-tagged catalytic domain, [ATP] 8.5 μM, unit not given (compound concentrations tested given in nM)
[2] = read-out: JAK2 IC50, recombinant GST-tagged catalytic domain, [ATP] 8.5 μM, unit not given (compound concentrations tested given in nM)

Sequence of JAK1 (P23458 875-1153): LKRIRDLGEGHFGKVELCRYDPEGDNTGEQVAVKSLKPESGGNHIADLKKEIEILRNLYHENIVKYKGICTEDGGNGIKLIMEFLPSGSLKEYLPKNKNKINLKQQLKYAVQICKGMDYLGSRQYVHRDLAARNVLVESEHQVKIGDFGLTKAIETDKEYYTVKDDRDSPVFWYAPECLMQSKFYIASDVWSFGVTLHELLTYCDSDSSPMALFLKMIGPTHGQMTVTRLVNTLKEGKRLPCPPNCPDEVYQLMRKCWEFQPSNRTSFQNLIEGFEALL

Row | SMILES | IC50 (JAK1) | IC50 (JAK2; [1]) | IC50 (JAK2; [2])
1 | CC1CCCN1C(c1ccc(Nc2nn([C@H]3COCC[C@@H]3C#N)c3cc[nH]c(=O)c23)cc1)C(F)(F)F (single isomer, unassigned) [Example 1-89, (3R,4S)-3-{4-oxo-3-[(4-{(1R or 1S)-2,2,2-trifluoro-1-[(2R or 2S)-2-methylpyrrolidin-1-yl]ethyl}phenyl)amino]-4,5-dihydro-1H-pyrazolo[4,3-c]pyridin-1-yl}tetrahydro-2H-pyran-4-carbonitrile] | 0.15 nM | 0.14 nM | 
2 | CC(C)S(=O)(=O)c1ccc(Nc2nn([C@H]3COCC[C@@H]3C#N)c3cc[nH]c(=O)c23)cc1 [Example 1-11, (3R,4S)-3-(3-((4-(isopropylsulfonyl)phenyl)amino)-4-oxo-4,5-dihydro-1H-pyrazolo[4,3-c]pyridin-1-yl)tetrahydro-2H-pyran-4-carbonitrile] | 0.09 nM |  | 0.34 nM
3 | N#C[C@H]1CCOCC1n1nc(Nc2ccc(C3(C(F)(F)F)CCNC3)cc2)c2c(=O)[nH]ccc21 (single isomer, unassigned) [Example 1-98, (3R,4S)-3-(4-oxo-3-((4-((S or R)-3-(trifluoromethyl)pyrrolidin-3-yl)phenyl)amino)-4,5-dihydro-1H-pyrazolo[4,3-c]pyridin-1-yl)tetrahydro-2H-pyran-4-carbonitrile] | 0.06 nM |  | 
4 | CC(C)(C)S(=O)(=O)c1ccc(Nc2nn([C@@H]3CCOCC[C@@H]3C#N)c3cc[nH]c(=O)c23)cc1 (single isomer, unassigned) [Example 1-29, (4S,5R or 4R,5S)-5-(3-{[4-(tert-butylsulfonyl)phenyl]amino}-4-oxo-4,5-dihydro-1H-pyrazolo[4,3-c]pyridin-1-yl)oxepane-4-carbonitrile] | 4.38 nM |  | 
5 | N#C[C@H]1CCOCC1n1nc(Nc2ccc(C3(C(F)(F)F)CCNC3)cc2)c2c(=O)[nH]ccc21 (single isomer, unassigned) [Example 1-99, (3R,4S)-3-(4-oxo-3-((4-((S or R)-3-(trifluoromethyl)pyrrolidin-3-yl)phenyl)amino)-4,5-dihydro-1H-pyrazolo[4,3-c]pyridin-1-yl)tetrahydro-2H-pyran-4-carbonitrile] | 0.07 nM |  | 
6 | N#C[C@H]1CCOC[C@@H]1n1nc(Nc2ccc(C3(C(F)(F)F)CCCCN3)cc2)c2c(=O)[nH]ccc21 (single isomer, unassigned) [Example 2-7, (3R,4S)-3-[4-oxo-3-({4-[(2S or 2R)-2-(trifluoromethyl)piperidin-2-yl]phenyl}amino)-4,5-dihydro-1H-pyrazolo[4,3-c]pyridin-1-yl] tetrahydro-2H-pyran-4-carbonitrile] | 0.05 nM | 0.06 nM | 
7 | N#C[C@H]1CCOCC1n1nc(Nc2ccc(C(O)(c3ccncc3)C(F)(F)F)cc2)c2c(=O)[nH]ccc21 (single isomer, unassigned) [Example 1-94, (3R,4S)-3-(4-oxo-3-((4-((S or R)-2,2,2-trifluoro-1-hydroxy-1-(pyridin-4-yl)ethyl)phenyl)amino)-4,5-dihydro-1H-pyrazolo[4,3-c]pyridin-1-yl)tetrahydro-2H-pyran-4-carbonitrile] | 0.08 nM | 0.15 nM | 
8 | N#C[C@H]1CCOC[C@@H]1n1nc(Nc2ccc(C(N3CCC3)C(F)(F)F)cc2)c2c(=O)[nH]ccc21 (single isomer, unassigned) [Example 1-57, (3R,4S)-3-[3-({4-[(1S or 1R)-1-azetidin-1-yl-2,2,2-trifluoroethyl]phenyl}amino)-4-oxo-4,5-dihydro-1H-pyrazolo[4,3-c]pyridin-1-yl]tetrahydro-2H-pyran-4-carbonitrile] | 0.09 nM |  | 
9 | CC(c1ccc(Nc2nn([C@H]3COCC[C@@H]3C#N)c3cc[nH]c(=O)c23)cc1)n1nccn1 (single isomer, unassigned) [Example 1-45, (3R,4S)-3-[4-oxo-3-({4-[(1R or 1S)-1-(2H-1,2,3-triazol-2-yl)ethyl]phenyl}amino)-4,5-dihydro-1H-pyrazolo[4,3-c]pyridin-1-yl]tetrahydro-2H-pyran-4-carbonitrile] | 0.14 nM | 0.21 nM | 
10 | CC(C)C(C)(C)S(=O)(=O)c1ccc(Nc2nn([C@H]3COCC[C@@H]3C#N)c3cc[nH]c(=O)c23)cc1 [Example 1-66, (3R,4S)-3-[4-oxo-3-({4-[(1,1,2-trimethylpropyl)sulfonyl]phenyl}amino)-4,5-dihydro-1H-pyrazolo[4,3-c]pyridin-1-yl]tetrahydro-2H-pyran-4-carbonitrile] | 0.07 nM |  | 
11 | N#C[C@H]1CCOC[C@@H]1n1nc(Nc2ccc(C3(C(F)(F)F)CCCCN3)cc2)c2c(=O)[nH]ccc21 (single isomer, unassigned) [Example 2-8, (3R,4S)-3-[4-oxo-3-({4-[(2R or 2S)-2-(trifluoromethyl)piperidin-2-yl]phenyl}amino)-4,5-dihydro-1H-pyrazolo[4,3-c]pyridin-1-yl] tetrahydro-2H-pyran-4-carbonitrile] | 0.05 nM | 0.05 nM | 
12 | N#C[C@H]1CCOC[C@@H]1n1nc(Nc2ccnc(F)c2)c2c(=O)[nH]ccc21 [Example 1-30, (3R,4S)-3-{3-[(2-fluoropyridin-4-yl)amino]-4-oxo-4,5-dihydro-1H-pyrazolo[4,3-c]pyridin-1-yl}tetrahydro-2H-pyran-4-carbonitrile] | 0.25 nM |  | 4.65 nM
13 | CC1(C)CC2(c3ccc(Nc4nn([C@H]5COCC[C@@H]5C#N)c5cc[nH]c(=O)c45)cc3)CCC1C(=O)O2 (stereo partly drawn) [Example 1-20, (3R,4S)-3-(3-{[4-(5,5-dimethyl-3-oxo-2-oxabicyclo[2.2.2]oct-1-yl)phenyl]amino}-4-oxo-4,5-dihydro-1H-pyrazolo[4,3-c]pyridin-1-yl)tetrahydro-2H-pyran-4-carbonitrile] | 0.07 nM |  | 
14 | CC(C)(C)OC(=O)CNC(c1ccc(Nc2nn([C@H]3COCC[C@@H]3C#N)c3cc[nH]c(=O)c23)cc1)C(F)(F)F (single isomer, unassigned) [Example 1-40, tert-butyl N-{[(1R or 1S)-1-[4-({1-[(3R,4S)-4-cyanotetrahydro-2H-pyran-3-yl]-4-oxo-4,5-dihydro-1H-pyrazolo[4,3-c]pyridin-3-yl}amino)phenyl]-2,2,2-trifluoroethyl}glycinate] | 0.16 nM | 0.78 nM | 
15 | CC(C)(C)NC(c1ccc(Nc2nn([C@H]3COCC[C@@H]3C#N)c3cc[nH]c(=O)c23)cc1)C(F)(F)F (single isomer, unassigned) [Example 1-50, (3R,4S)-3-[3-({4-[(1R or 1S)-1-(tert-butylamino)-2,2,2-trifluoroethyl]phenyl}amino)-4-oxo-4,5-dihydro-1H-pyrazolo[4,3-c]pyridine-1-yl]tetrahydro-2H-pyran-4-carbonitrile] | 0.08 nM |  | 
16 | CC(C)(C)S(=O)(=O)c1ccc(Nc2nn([C@H]3CCOCC[C@H]3C#N)c3cc[nH]c(=O)c23)cc1 (single isomer, unassigned) [Example 1-28, (4R,5S or 4S,5R)-5-(3-{[4-(tert-butylsulfonyl)phenyl]amino}-4-oxo-4,5-dihydro-1H-pyrazolo[4,3-c]pyridin-1-yl)oxepane-4-carbonitrile] | 5.34 nM |  | 
17 | CC(C)(C)NC(c1ccc(Nc2nn([C@H]3COCC[C@@H]3C#N)c3cc[nH]c(=O)c23)cc1)C(F)(F)F (single isomer, unassigned) [Example 1-51, (3R,4S)-3-[3-[3-({4-[(1S or 1R)-1-(tert-butylamino)-2,2,2-trifluoroethyl]phenyl}amino)-4-oxo-4,5-dihydro-1H-pyrazolo[4,3-c]pyridin-1-yl]tetrahydro-2H-pyran-4-carbonitrile] | 0.08 nM |  | 
18 | CC(C)(C)S(=O)(=O)c1ccc(Nc2nn([C@H]3CCOCC[C@@H]3C#N)c3cc[nH]c(=O)c23)cc1 (single isomer, unassigned) [Example 1-26, (4S,5S or 4R,5R)-5-(3-{[4-(tert-butylsulfonyl)phenyl]amino}-4-oxo-4,5-dihydro-1H-pyrazolo[4,3-c]pyridin-1-yl)oxepane-4-carbonitrile] | 0.71 nM |  | 
19 | CC(C)(N)c1ccc(Nc2nn([C@H]3COCC[C@@H]3C#N)c3cc[nH]c(=O)c23)cc1 [Example 1-60, (3R,4S)-3-(3-{[4-(1-amino-1-methylethyl)phenyl]amino}-4-oxo-4,5-dihydro-1H-pyrazolo[4,3-c]pyridin-1-yl)tetrahydro-2H-pyran-4-carbonitrile] | 0.21 nM |  | 
20 | CC1CN(S(=O)(=O)c2ccc(Nc3nn([C@H]4COCC[C@@H]4C#N)c4cc[nH]c(=O)c34)cc2)C1 [Example 1-70, (3R,4S)-3-[3-({4-[(3-methylazetidin-1-yl)sulfonyl]phenyl}amino)-4-oxo-4,5-dihydro-1H-pyrazolo[4,3-c]pyridin-1-yl]tetrahydro-2H-pyran-4-carbonitrile] | 0.15 nM |  | 
21 | CC(C)(C)S(=O)(=O)c1ccc(Nc2nn([C@@H]3CCOCC[C@H]3C#N)c3cc[nH]c(=O)c23)cc1 (single isomer, unassigned) [Example 1-27, (4R,5R or 4S,5S)-5-(3-{[4-(tert-butylsulfonyl)phenyl]amino}-4-oxo-4,5-dihydro-1H-pyrazolo[4,3-c]pyridin-1-yl)oxepane-4-carbonitrile] | 22.4 nM |  | 
22 | CC1(C)CC2(c3ccc(Nc4nn([C@H]5COCC[C@@H]5C#N)c5cc[nH]c(=O)c45)cc3)CCC1C(=O)O2 (stereo partly drawn) [Example 1-21, (3R,4S)-3-(3-{[4-(5,5-dimethyl-3-oxo-2-oxabicyclo[2.2.2]oct-1-yl)phenyl]amino}-4-oxo-4,5-dihydro-1H-pyrazolo[4,3-c]pyridin-1-yl)tetrahydro-2H-pyran-4-carbonitrile] | 0.08 nM |  | 
23 | N#C[C@H]1CCOC[C@@H]1n1nc(Nc2ccc(C(N3CCC3)C(F)(F)F)cc2)c2c(=O)[nH]ccc21 (single isomer, unassigned) [Example 1-56, (3R,4S)-3-[3-({4-[(1R or 1S)-1-azetidin-1-yl-2,2,2-trifluoroethyl]phenyl}amino)-4-oxo-4,5-dihydro-1H-pyrazolo[4,3-c]pyridin-1-yl]tetrahydro-2H-pyran-4-carbonitrile] | 0.06 nM |  | 
